Results taken from patent US8916557B2, “Substituted 4-Aryl-N-phenyl-1,3,5-triazin-2-amines” (Bayer Intellectual Property GmbH, priority 2011, dated 2014).

Key:
[1] = test system: HeLa human cervical tumour cells; assay: Proliferation assay (crystal violet), HeLa; assay type: cell-based; conditions: read-out: Inhibition of HeLa cell proliferation
[2] = target: T1, CDK9/CycT1 (Homo sapiens, UniProt P50750); assay: CDK9/CycT1 kinase assay (TR-FRET); assay type: biochemical; conditions: Method 1, 10 μM ATP
T1 construct: Recombinant full-length His-tagged human CDK9 and CycT1; His; purchased Invitrogen PV4131; host or cells: insect cells
Source text: 1. CDK9/CycT1 Kinase Assay:
CDK9/CycT1-inhibitory activity of compounds of the present invention was quantified employing the CDK9/CycT1 TR-FRET assay as described in the following paragraphs:
Recombinant full-length His-tagged human CDK9 and CycT1, expressed in insect cells and purified by Ni-NTA affinity chromatography, were purchased from Invitrogen (Cat. No PV4131). As substrate for the kinase reaction biotinylated peptide biotin-Ttds-[…] (C-terminus in amid form) was used which can be purchased e.g. form the company JERINI Peptide Technologies (Berlin, Germany). For the assay 50 nl of a 100fold concentrated solution of the test compound in DMSO was pipetted into a black low volume 384well microtiter plate (Greiner Bio-One, Frickenhausen, Germany), 2 μl of a solution of CDK9/CycT1 in aqueous assay buffer [50 mM Tris/HCl pH 8.0, 10 mM MgCl2, 1.0 mM dithiothreitol, 0.1 mM sodium ortho-vanadate, 0.01% (v/v) Nonidet-P40 (Sigma)] were added and the mixture was incubated for 15 min at 22° C. to allow pre-binding of the test compounds to the enzyme before the start of the kinase reaction. Then the kinase reaction was started by the addition of 3 μl of a solution of adenosine-tri-phosphate (ATP, 16.7 μM=>final conc. in the 5 μl assay volume is 10 μM) and substrate (1.67 μM=>final conc. in the 5 μl assay volume is 1 μM) in assay buffer and the resulting mixture was incubated for a reaction time of 25 min at 22° C. The concentration of CDK9/CycT1 was adjusted depending of the activity of the enzyme lot and was chosen appropriate to have the assay in the linear range, typical concentrations were in the range of 1 μg/ml. The reaction was stopped by the addition of 5 μl of a solution of TR-FRET detection reagents (0.2 μM streptavidine-XL665 [Cisbio Bioassays, Codolet, France] and 1 nM anti-RB(pSer807/pSer811)-antibody from BD Pharmingen [#558389] and 1.2 nM LANCE EU-W1024 labeled anti-mouse IgG antibody [Perkin-Elmer, product no. AD0077]) in an aqueous EDTA-solution (100 mM EDTA, 0.2% (w/v) bovine serum albumin in 100 mM HEPES/NaOH pH 7.0).
(§1) The resulting mixture was incubated 1 h at 22° C. to allow the formation of complex between the phosphorylated biotinylated peptide and the detection reagents. Subsequently the amount of phosphorylated substrate was evaluated by measurement of the resonance energy transfer from the Eu-chelate to the streptavidine-XL. Therefore, the fluorescence emissions at 620 nm and 665 nm after excitation at 350 nm was measured in a HTRF reader, e.g. a Rubystar (BMG Labtechnologies, Offenburg, Germany) or a Viewlux (Perkin-Elmer). The ratio of the emissions at 665 nm and at 622 nm was taken as the measure for the amount of phosphorylated substrate.

[3] = target: T2, CDK2/CycE (Homo sapiens, UniProt P24941); assay: CDK2/CycE kinase assay (TR-FRET); assay type: biochemical; conditions: Method 2, 10 μM ATP
T2 construct: GST; purchased ProQinase GmbH (Freiburg, Germany); host or cells: insect cells (Sf9)
Source text: 2. CDK2/CycE Kinase Assay:
CDK2/CycE-inhibitory activity of compounds of the present invention was quantified employing the CDK2/CycE TR-FRET assay as described in the following paragraphs:
Recombinant fusion proteins of GST and human CDK2 and of GST and human CycE, expressed in insect cells (Sf9) and purified by Glutathion-Sepharose affinity chromatography, were purchased from ProQinase GmbH (Freiburg, Germany). As substrate for the kinase reaction biotinylated peptide biotin-Ttds-[…] (C-terminus in amid form) was used which can be purchased e.g. form the company JERINI Peptide Technologies (Berlin, Germany).
For the assay 50 nl of a 100fold concentrated solution of the test compound in DMSO was pipetted into a black low volume 384well microtiter plate (Greiner Bio-One, Frickenhausen, Germany), 2 μl of a solution of CDK2/CycE in aqueous assay buffer [50 mM Tris/HCl pH 8.0, 10 mM MgCl2, 1.0 mM dithiothreitol, 0.1 mM sodium ortho-vanadate, 0.01% (v/v) Nonidet-P40 (Sigma)] were added and the mixture was incubated for […] at 22° C. to allow pre-binding of the test compounds to the enzyme before the start of the kinase reaction. Then the kinase reaction was started by the addition of 3 μl of a solution of adenosine-tri-phosphate (ATP, 16.7 μM=>final conc. in the 5 it assay volume is 10 μM) and substrate (1.25 μM=>final conc. in the 5 it assay volume is 0.75 μM) in assay buffer and the resulting mixture was incubated for a reaction time of […] at 22° C. The concentration of CDK2/CycE was adjusted depending of the activity of the enzyme lot and was chosen appropriate to have the assay in the linear range, typical concentrations were in the range of 130 ng/ml. The reaction was stopped by the addition of 5 it of a solution of TR-FRET detection reagents (0.2 μM streptavidine-XL665 [Cisbio Bioassays, Codolet, France] and 1 nM anti-RB(pSer807/pSer811)-antibody from BD Pharmingen [#558389] and 1.2 nM LANCE EU-W1024 labeled anti-mouse IgG antibody [Perkin-Elmer, product no. AD0077]) in an aqueous EDTA-solution (100 mM EDTA, 0.2% (w/v) bovine serum albumin in 100 mM HEPES/NaOH pH 7.0).
as §1, with “TR-FRET” for “HTRF”

T1 sequence (P50750 whole entry): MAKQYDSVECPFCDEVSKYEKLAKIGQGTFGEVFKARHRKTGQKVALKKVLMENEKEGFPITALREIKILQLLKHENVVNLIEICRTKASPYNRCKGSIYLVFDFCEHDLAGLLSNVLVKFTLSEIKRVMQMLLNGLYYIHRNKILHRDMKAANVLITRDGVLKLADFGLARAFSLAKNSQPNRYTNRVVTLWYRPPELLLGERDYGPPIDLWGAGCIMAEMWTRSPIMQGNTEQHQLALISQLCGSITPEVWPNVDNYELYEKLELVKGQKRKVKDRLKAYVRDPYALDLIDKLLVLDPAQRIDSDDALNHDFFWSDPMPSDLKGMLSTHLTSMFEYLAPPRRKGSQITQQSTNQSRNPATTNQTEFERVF
T1 sequence (O60563 whole entry partner): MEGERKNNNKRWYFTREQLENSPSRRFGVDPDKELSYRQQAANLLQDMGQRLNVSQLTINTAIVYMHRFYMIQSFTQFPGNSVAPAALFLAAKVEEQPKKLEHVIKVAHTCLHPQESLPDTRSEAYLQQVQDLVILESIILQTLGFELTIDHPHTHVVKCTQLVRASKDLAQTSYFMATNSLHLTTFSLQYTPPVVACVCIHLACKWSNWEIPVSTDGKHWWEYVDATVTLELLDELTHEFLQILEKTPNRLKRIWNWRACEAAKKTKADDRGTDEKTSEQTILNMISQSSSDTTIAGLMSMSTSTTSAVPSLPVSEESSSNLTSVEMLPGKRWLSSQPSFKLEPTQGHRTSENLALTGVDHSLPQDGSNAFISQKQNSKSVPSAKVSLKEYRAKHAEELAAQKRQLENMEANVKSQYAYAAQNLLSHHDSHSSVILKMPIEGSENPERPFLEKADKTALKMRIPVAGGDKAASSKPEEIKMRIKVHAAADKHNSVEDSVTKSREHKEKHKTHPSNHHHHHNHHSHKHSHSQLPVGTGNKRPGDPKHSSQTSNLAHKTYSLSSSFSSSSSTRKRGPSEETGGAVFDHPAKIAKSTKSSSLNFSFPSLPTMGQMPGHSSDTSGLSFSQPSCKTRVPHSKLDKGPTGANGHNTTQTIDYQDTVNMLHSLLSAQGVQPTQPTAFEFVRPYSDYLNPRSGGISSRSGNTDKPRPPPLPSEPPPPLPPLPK

SMILES | IC50 [1] | IC50 [2] | IC50 [3]
COCCS(=O)(=O)Cc1cccc(Nc2ncnc(-c3ccc(F)cc3OC)n2)c1 [Example 23, 4-(4-Fluoro-2-methoxyphenyl)-N-(3-{[(2-methoxyethyl)sulfonyl]methyl}phenyl)-1,3,5-triazin-2-amine] | 0.93 µM | 0.012 µM | 1.3 µM
CC(Oc1cc(F)ccc1-c1ncnc(Nc2cccc(CS(C)(=O)=O)c2)n1)c1ccccc1 (racemic) [Example 68, rac-4-[4-Fluoro-2-(1-phenylethoxy)phenyl]-N-{3-[(methylsulfonyl)methyl]phenyl}-1,3,5-triazin-2-amine] | 1.4 µM | 0.016 µM | 1.1 µM
CS(=O)(=O)Cc1cccc(Nc2ncnc(-c3ccc(F)cc3OCc3ccccc3F)n2)c1 [Example 71, 4-{4-Fluoro-2-[(2-fluorobenzyl)oxy]phenyl}-N-{3-[(methylsulfonyl)-methyl]phenyl}-1,3,5-triazin-2-amine] | 1.17 µM | 0.012 µM | 2.2 µM
CS(=O)(=O)Cc1cccc(Nc2ncnc(-c3ccc(F)cc3OCCC3CCCC3)n2)c1 [Example 53, 4-[2-(2-Cyclopentylethoxy)-4-fluorophenyl]-N-{3-[(methylsulfonyl)methyl]phenyl}-1,3,5-triazin-2-amine] | 1.3 µM | 0.016 µM | 0.95 µM
CS(=O)(=O)Cc1cccc(Nc2ncnc(-c3ccc(F)cc3OCc3ccc(C(F)(F)F)cc3)n2)c1 [Example 73, 4-(4-Fluoro-2-{[4-(trifluoromethyl)benzyl]-oxy}phenyl)-N-{3-[(methylsulfonyl)-methyl]phenyl}-1,3,5-triazin-2-amine] | 1.1 µM | 0.012 µM | ≥ 20 µM
CS(=O)(=O)Cc1cccc(Nc2ncnc(-c3ccc(F)cc3OCc3ccc(F)c(F)c3F)n2)c1 [Example 72, 4-{4-Fluoro-2-[(2,3,4-trifluorobenzyl)oxy]-phenyl}-N-{3-[(methylsulfonyl)methyl]-phenyl}-1,3,5-triazin-2-amine] | 1.16 µM | 0.007 µM | ≥ 20 µM
CC(C)CCCOc1cc(F)ccc1-c1ncnc(Nc2cccc(CS(C)(=O)=O)c2)n1 [Example 47, 4-{4-Fluoro-2-[(4-methylpentyl)oxy]phenyl}-N-{3-[(methylsulfonyl)-methyl]phenyl}-1,3,5-triazin-2-amine] | 1 µM | 0.005 µM | 1.2 µM
[2H]C([2H])([2H])Oc1ccccc1-c1ncnc(Nc2cccc(CS(C)(=O)=O)c2)n1 [Example 22, 4-{2-[(^2H3)methyloxy]phenyl}-N-{3-[(methylsulfonyl)methyl]phenyl}-1,3,5-triazin-2-amine] | 1.4 µM | 0.023 µM | 2.5 µM
CS(=O)(=O)Cc1cccc(Nc2ncnc(-c3ccc(F)cc3OCc3cccnc3)n2)c1 [Example 74, 4-[4-Fluoro-2-(pyridin-3-ylmethoxy)phenyl]-N-{3-[(methylsulfonyl)methyl]phenyl}-1,3,5-triazin-2-amine] | 1.1 µM | 0.007 µM | 0.57 µM
CC(C)CCOc1cc(F)ccc1-c1ncnc(Nc2cccc(CS(C)(=O)=O)c2)n1 [Example 52, 4-[4-Fluoro-2-(3-methylbutoxy)phenyl]-N-{3-[(methylsulfonyl)methyl]phenyl}-1,3,5-triazin-2-amine] | 1.2 µM | 0.016 µM | 4 µM
C[C@@H](Oc1cc(F)ccc1-c1ncnc(Nc2cccc(CS(C)(=O)=O)c2)n1)c1ccccc1 [Example 79, 4-{4-Fluoro-2-[(1R)-1-phenylethoxy]phenyl}-N-{3-[(methylsulfonyl)methyl]phenyl}-1,3,5-triazin-2-amine] | 0.92 µM | 0.003 µM | 0.44 µM
Cc1ccc(COc2cc(F)ccc2-c2ncnc(Nc3cccc(CS(C)(=O)=O)c3)n2)cc1 [Example 77, 4-{4-Fluoro-2-[(4-methylbenzyl)oxy]phenyl}-N-{3-[(methylsulfonyl)-methyl]phenyl}-1,3,5-triazin-2-amine] | 1 µM | 0.013 µM | 1.6 µM
CS(=O)(=O)Cc1cccc(Nc2ncnc(-c3ccc(F)cc3OCc3cccc(C(F)(F)F)c3)n2)c1 [Example 69, 4-(4-Fluoro-2-{[3-(trifluoromethyl)benzyl]oxy}phenyl)-N-{3-[(methylsulfonyl)-methyl]phenyl}-1,3,5-triazin-2-amine] | 1.3 µM | 0.004 µM | 1.3 µM
COc1cc(F)ccc1-c1ncnc(Nc2cccc(CS(=O)(=O)C3CCCC3)c2)n1 [Example 36, N-{3-[(Cyclopentylsulfonyl)methyl]phenyl}-4-(4-fluoro-2-methoxyphenyl)-1,3,5-triazin-2-amine] | 1 µM | 0.017 µM | 0.88 µM
CS(=O)(=O)Cc1cccc(Nc2ncnc(-c3ccc(F)cc3OCC(F)F)n2)c1 [Example 60, 4-[2-(2,2-Difluoroethoxy)-4-fluorophenyl]-N-{3-[(methylsulfonyl)methyl]phenyl}-1,3,5-triazin-2-amine] | 1.1 µM | 0.022 µM | 1.2 µM
COc1cc(F)ccc1-c1ncnc(Nc2cccc(CS(=O)(=O)CCO)c2)n1 [Example 14, 2-[(3-{[4-(4-Fluoro-2-methoxyphenyl)-1,3,5-triazin-2-yl]amino}benzyl)sulfonyl]ethanol] | 0.6 µM | 0.012 µM | 0.61 µM
CC(C)S(=O)(=O)Cc1cccc(Nc2ncnc(-c3ccccc3OCc3ccc(F)cc3)n2)c1 [Example 37, 4-{2-[(4-Fluorobenzyl)oxy]phenyl}-N-{3-[(prop-2-ylsulfonyl)methyl]phenyl}-1,3,5-triazin-2-amine] | 1.1 µM | 0.009 µM | 2.5 µM
CS(=O)(=O)Cc1cccc(Nc2ncnc(-c3ccccc3OCc3ccc(F)cc3)n2)c1 [Example 25, 4-{2-[(4-Fluorobenzyl)oxy]phenyl}-N-{3-[(methylsulfonyl)methyl]phenyl}-1,3,5-triazin-2-amine] | 0.76 µM | 0.007 µM | 1.1 µM
